Source: the kinase profiling compilation of Christmann-Franck et al. (2016)

Legend:
Assay in all cases: radiometric filter-binding kinase assay
[1] = target: STK11 CAB39 STRADA (human) (UniProt Q9Y376+Q7RTN6+Q15831)
EEF2K (human) = EEF2K (human) (UniProt O00418)
CSNK2A1 (human) = CSNK2A1 (human) (UniProt P68400)
INSRR (human) = INSRR (human) (UniProt P14616)
MYLK (human) = MYLK (human) (UniProt Q15746)
TTK (human) = TTK (human) (UniProt P33981)
MAPK13 (human) = MAPK13 (human) (UniProt O15264)
MARK4 (human) = MARK4 (human) (UniProt Q96L34)
MAP2K2 (human) = MAP2K2 (human) (UniProt P36507)
NTRK1 (human) = NTRK1 (human) (UniProt P04629); conditions: compound 1.0 µM
MAPK1 (human) = MAPK1 (human) (UniProt P28482)
CHEK2 (human) = CHEK2 (human) (UniProt O96017)
LCK (mouse) = conditions: accession and sequence are those of the human protein
MKNK1 (human) = MKNK1 (human) (UniProt Q9BUB5)
ERBB4 (human) = ERBB4 (human) (UniProt Q15303)
FGFR1 (human) = FGFR1 (human) (UniProt P11362)
MAP3K9 (human) = MAP3K9 (human) (UniProt P80192)
EPHB3 (human) = EPHB3 (human) (UniProt P54753)
SRC (human) = SRC (human) (UniProt P12931)
RPS6KA1 KD1 KD2 (human) = RPS6KA1 KD1 KD2 (human) (UniProt Q15418)
PRKAA1 or PRKAA2 (rat) = conditions: accession and sequence are those of the human protein
GSK3B (human) = GSK3B (human) (UniProt P49841)
ROCK2 (rat) = conditions: accession and sequence are those of the human protein
MINK1 (human) = MINK1 (human) (UniProt Q8N4C8)
PRKACA (human) = PRKACA (human) (UniProt P17612); conditions: compound 10.0 µM
IKBKB (human) = IKBKB (human) (UniProt O14920)
MELK (human) = MELK (human) (UniProt Q14680)
DAPK1 (human) = DAPK1 (human) (UniProt P53355)
MAPKAPK3 (human) = MAPKAPK3 (human) (UniProt Q16644); conditions: compound 1.0 µM
AURKB (human) = AURKB (human) (UniProt Q96GD4)
MKNK2 (human) = MKNK2 (human) (UniProt Q9HBH9)
CDK2 CCNA2 (human) = CDK2 CCNA2 (human) (UniProt P20248+P24941)
PHKG1 (human) = PHKG1 (human) (UniProt Q16816)
CSK (human) = CSK (human) (UniProt P41240)

EPHB3 (human), sequence (P54753 whole entry, looked up): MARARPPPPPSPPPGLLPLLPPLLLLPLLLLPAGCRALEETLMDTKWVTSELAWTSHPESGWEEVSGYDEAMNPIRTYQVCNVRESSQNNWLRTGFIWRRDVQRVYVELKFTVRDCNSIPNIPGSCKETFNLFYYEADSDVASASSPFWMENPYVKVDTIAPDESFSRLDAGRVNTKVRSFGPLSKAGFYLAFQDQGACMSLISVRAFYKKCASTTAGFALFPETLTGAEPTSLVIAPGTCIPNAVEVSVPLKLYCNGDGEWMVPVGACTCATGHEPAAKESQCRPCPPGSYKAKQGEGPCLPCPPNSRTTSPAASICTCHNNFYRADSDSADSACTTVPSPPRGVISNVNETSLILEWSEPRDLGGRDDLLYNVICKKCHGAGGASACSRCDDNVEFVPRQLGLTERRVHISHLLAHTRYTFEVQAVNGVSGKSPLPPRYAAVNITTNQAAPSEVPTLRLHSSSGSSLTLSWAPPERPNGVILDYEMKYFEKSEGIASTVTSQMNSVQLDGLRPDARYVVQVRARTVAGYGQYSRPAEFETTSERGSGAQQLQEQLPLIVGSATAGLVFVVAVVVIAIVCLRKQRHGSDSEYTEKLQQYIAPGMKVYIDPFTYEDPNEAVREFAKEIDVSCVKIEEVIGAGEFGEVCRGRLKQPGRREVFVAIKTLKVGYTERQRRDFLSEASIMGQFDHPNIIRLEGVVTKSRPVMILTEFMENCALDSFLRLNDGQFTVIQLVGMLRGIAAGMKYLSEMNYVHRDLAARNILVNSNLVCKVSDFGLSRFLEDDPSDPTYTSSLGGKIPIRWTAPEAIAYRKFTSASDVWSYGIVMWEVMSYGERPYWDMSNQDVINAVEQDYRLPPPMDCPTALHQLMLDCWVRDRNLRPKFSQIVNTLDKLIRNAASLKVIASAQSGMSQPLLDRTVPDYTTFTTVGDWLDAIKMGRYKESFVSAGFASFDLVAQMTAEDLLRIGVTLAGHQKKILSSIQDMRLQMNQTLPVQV
MELK (human), sequence (Q14680 whole entry, looked up): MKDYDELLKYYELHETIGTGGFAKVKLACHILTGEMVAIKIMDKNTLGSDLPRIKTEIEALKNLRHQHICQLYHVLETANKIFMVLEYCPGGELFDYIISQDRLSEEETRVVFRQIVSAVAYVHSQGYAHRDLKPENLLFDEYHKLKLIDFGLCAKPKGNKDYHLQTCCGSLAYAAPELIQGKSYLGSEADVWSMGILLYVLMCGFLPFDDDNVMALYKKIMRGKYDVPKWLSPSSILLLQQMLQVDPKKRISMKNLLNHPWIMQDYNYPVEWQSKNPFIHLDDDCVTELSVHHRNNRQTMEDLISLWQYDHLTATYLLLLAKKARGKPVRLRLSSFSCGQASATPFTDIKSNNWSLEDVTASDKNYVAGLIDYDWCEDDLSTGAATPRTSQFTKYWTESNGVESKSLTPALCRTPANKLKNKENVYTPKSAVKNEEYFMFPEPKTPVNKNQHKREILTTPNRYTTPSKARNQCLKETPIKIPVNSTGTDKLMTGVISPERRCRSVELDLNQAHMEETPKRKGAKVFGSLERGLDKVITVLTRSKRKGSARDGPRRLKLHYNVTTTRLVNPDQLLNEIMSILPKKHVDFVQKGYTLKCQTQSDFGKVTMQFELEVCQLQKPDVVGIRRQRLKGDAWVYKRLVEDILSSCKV
ERBB4 (human), sequence (Q15303 whole entry, looked up): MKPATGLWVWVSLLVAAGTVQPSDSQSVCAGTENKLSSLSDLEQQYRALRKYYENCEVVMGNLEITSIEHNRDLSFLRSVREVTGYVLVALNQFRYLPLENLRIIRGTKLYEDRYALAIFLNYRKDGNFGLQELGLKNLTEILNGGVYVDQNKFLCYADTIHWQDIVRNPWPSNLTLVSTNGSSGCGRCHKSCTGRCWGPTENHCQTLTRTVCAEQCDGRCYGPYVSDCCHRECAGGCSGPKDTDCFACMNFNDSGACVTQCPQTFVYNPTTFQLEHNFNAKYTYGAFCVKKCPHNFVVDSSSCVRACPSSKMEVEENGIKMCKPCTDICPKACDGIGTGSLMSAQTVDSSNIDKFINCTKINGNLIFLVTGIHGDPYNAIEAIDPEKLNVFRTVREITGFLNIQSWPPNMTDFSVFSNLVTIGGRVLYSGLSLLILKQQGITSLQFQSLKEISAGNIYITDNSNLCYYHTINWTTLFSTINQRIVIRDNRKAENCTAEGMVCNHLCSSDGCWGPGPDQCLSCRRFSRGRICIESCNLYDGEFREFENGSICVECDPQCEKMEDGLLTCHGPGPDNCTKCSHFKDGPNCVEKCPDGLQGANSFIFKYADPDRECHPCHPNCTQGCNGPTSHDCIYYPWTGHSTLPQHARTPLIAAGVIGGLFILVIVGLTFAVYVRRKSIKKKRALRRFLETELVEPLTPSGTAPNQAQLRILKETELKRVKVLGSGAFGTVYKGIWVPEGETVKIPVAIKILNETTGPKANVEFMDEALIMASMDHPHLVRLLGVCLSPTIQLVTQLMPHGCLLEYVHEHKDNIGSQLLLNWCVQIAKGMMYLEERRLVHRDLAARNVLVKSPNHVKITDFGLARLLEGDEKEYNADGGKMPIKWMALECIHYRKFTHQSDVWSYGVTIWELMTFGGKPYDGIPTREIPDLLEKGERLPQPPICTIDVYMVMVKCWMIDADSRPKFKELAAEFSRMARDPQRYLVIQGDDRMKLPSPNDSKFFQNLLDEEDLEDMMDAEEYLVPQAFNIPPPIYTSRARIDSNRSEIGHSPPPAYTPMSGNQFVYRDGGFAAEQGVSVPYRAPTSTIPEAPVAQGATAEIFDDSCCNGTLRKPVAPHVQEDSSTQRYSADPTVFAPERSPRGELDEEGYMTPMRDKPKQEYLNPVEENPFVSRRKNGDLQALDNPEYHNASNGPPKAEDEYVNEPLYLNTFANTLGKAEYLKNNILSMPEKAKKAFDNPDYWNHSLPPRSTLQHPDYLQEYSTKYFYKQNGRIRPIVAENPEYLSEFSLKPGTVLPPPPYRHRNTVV
GSK3B (human), sequence (P49841 whole entry, looked up): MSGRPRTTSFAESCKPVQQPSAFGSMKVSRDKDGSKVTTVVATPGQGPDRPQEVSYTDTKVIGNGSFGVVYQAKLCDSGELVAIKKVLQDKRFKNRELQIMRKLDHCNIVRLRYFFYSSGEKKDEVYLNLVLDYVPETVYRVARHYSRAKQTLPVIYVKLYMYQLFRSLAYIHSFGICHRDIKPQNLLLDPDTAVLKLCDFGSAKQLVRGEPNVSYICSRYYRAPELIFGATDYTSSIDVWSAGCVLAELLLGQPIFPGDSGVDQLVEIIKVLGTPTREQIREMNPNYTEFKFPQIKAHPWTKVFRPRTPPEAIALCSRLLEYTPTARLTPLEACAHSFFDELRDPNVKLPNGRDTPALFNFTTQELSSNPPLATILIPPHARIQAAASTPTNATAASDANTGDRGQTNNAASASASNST
CHEK2 (human), sequence (O96017 whole entry, looked up): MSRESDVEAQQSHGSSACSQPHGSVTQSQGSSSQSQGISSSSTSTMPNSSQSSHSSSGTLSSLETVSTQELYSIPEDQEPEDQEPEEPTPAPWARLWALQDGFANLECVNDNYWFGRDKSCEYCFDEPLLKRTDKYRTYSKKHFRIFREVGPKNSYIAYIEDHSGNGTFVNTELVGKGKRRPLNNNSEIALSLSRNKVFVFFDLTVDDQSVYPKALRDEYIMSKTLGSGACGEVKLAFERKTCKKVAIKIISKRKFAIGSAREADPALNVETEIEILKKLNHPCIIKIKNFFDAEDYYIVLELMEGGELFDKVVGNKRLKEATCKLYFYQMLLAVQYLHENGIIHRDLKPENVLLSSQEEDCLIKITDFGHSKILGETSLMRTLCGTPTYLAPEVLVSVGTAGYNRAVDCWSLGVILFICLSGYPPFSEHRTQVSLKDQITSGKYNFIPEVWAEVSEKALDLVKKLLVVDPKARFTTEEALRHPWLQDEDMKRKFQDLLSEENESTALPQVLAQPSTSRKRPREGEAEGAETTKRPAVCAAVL
SRC (human), sequence (P12931 whole entry, looked up): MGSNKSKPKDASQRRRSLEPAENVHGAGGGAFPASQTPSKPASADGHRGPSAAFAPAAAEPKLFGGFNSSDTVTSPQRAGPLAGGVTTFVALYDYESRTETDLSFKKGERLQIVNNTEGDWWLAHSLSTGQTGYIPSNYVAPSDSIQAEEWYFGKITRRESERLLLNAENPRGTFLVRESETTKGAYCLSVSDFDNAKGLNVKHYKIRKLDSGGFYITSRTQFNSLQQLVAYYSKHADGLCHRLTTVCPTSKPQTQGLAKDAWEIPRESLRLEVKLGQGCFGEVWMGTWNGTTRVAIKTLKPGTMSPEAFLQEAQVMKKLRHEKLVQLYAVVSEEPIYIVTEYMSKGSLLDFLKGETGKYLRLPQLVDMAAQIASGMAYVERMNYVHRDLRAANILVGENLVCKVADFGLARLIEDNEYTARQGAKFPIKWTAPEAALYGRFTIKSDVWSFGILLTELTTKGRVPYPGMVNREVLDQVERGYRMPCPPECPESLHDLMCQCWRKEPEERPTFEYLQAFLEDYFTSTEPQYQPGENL
PHKG1 (human), sequence (Q16816 whole entry, looked up): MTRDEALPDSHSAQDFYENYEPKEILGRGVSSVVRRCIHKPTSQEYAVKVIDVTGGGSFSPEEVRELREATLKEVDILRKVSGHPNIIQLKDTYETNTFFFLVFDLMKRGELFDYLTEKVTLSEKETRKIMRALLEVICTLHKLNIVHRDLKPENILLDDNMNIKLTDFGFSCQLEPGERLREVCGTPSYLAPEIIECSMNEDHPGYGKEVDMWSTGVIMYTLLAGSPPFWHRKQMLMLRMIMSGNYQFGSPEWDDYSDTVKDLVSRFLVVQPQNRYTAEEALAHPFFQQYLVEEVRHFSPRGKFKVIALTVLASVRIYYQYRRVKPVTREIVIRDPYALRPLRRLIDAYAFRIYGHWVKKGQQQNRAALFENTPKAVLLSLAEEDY

`CC(C)(C#N)c1ccc(N2C(=O)OCc3cnc4ccc(-c5cnc6ccccc6c5)cc4c32)cc1` was tested, and the residual activity ([1]; compound 1.0 µM) was 87%, the residual activity ([1]; compound 10.0 µM) was 85% and the residual activity (EEF2K (human); compound 1.0 µM) was 99%. The residual activity (EEF2K (human); compound 10.0 µM) was 109%, the residual activity (CSNK2A1 (human); compound 1.0 µM) was 97% and the residual activity (CSNK2A1 (human); compound 10.0 µM) was 97%. For the same compound, the residual activity (INSRR (human); compound 1.0 µM) was 74%, the residual activity (INSRR (human); compound 10.0 µM) was 77% and the residual activity (MYLK (human); compound 1.0 µM) was 87%. The residual activity (MYLK (human); compound 10.0 µM) was 100%, the residual activity (TTK (human); compound 1.0 µM) was 91% and the residual activity (TTK (human); compound 10.0 µM) was 86%. For the same compound, the residual activity (MAPK13 (human); compound 1.0 µM) was 96%, the residual activity (MAPK13 (human); compound 10.0 µM) was 95% and the residual activity (MARK4 (human); compound 1.0 µM) was 100%. It also gave a residual activity (MARK4 (human); compound 10.0 µM) of 86%, a residual activity (MAP2K2 (human); compound 1.0 µM) of 87% and a residual activity (MAP2K2 (human); compound 10.0 µM) of 75%. The residual activity (NTRK1 (human)) was 50%, the residual activity (MAPK1 (human); compound 1.0 µM) was 83% and the residual activity (MAPK1 (human); compound 10.0 µM) was 95%. For the same compound, the residual activity (CHEK2 (human); compound 1.0 µM) was 95%, the residual activity (CHEK2 (human); compound 10.0 µM) was 94% and the residual activity (LCK (mouse); compound 1.0 µM) was 78%. For the same compound, the residual activity (LCK (mouse); compound 10.0 µM) was 98%, the residual activity (MKNK1 (human); compound 1.0 µM) was 89% and the residual activity (MKNK1 (human); compound 10.0 µM) was 90%. The residual activity (ERBB4 (human); compound 1.0 µM) was 110%, the residual activity (ERBB4 (human); compound 10.0 µM) was 97% and the residual activity (FGFR1 (human); compound 1.0 µM) was 98%. It also gave a residual activity (FGFR1 (human); compound 10.0 µM) of 93%, a residual activity (MAP3K9 (human); compound 1.0 µM) of 91% and a residual activity (MAP3K9 (human); compound 10.0 µM) of 89%. For the same compound, the residual activity (EPHB3 (human); compound 1.0 µM) was 116%, the residual activity (EPHB3 (human); compound 10.0 µM) was 103% and the residual activity (SRC (human); compound 1.0 µM) was 83%. For the same compound, the residual activity (SRC (human); compound 10.0 µM) was 130%, the residual activity (RPS6KA1 KD1 KD2 (human); compound 1.0 µM) was 96% and the residual activity (RPS6KA1 KD1 KD2 (human); compound 10.0 µM) was 73%. It also gave a residual activity (PRKAA1 or PRKAA2 (rat); compound 1.0 µM) of 91%, a residual activity (PRKAA1 or PRKAA2 (rat); compound 10.0 µM) of 89% and a residual activity (GSK3B (human); compound 1.0 µM) of 74%. The residual activity (GSK3B (human); compound 10.0 µM) was 89%, the residual activity (ROCK2 (rat); compound 1.0 µM) was 120% and the residual activity (ROCK2 (rat); compound 10.0 µM) was 104%. For the same compound, the residual activity (MINK1 (human); compound 1.0 µM) was 72%, the residual activity (MINK1 (human); compound 10.0 µM) was 55% and the residual activity (PRKACA (human)) was 92%. The residual activity (IKBKB (human); compound 1.0 µM) was 86%, the residual activity (IKBKB (human); compound 10.0 µM) was 87% and the residual activity (MELK (human); compound 1.0 µM) was 49%. The residual activity (MELK (human); compound 10.0 µM) was 49%, the residual activity (DAPK1 (human); compound 1.0 µM) was 84% and the residual activity (DAPK1 (human); compound 10.0 µM) was 88%. For the same compound, the residual activity (MAPKAPK3 (human)) was 88%, the residual activity (AURKB (human); compound 1.0 µM) was 93% and the residual activity (AURKB (human); compound 10.0 µM) was 82%. The residual activity (MKNK2 (human); compound 1.0 µM) was 94%, the residual activity (MKNK2 (human); compound 10.0 µM) was 99% and the residual activity (CDK2 CCNA2 (human); compound 1.0 µM) was 90%. The residual activity (CDK2 CCNA2 (human); compound 10.0 µM) was 85%, the residual activity (PHKG1 (human); compound 1.0 µM) was 97% and the residual activity (PHKG1 (human); compound 10.0 µM) was 92%. For the same compound, the residual activity (CSK (human); compound 1.0 µM) was 75% and the residual activity (CSK (human); compound 10.0 µM) was 89%.
